Assay results from patent US4603142A, “Cholesterol lowering method of use” (Wisconsin Alumni Research Foundation, priority 1984, dated 1986).

Assay: Serum lipids in 3-week-old broiler male chickens fed supplemented corn diet
Type: in vivo, chicken
Conditions: for Concentration in Serum Chol-LDL, percentage of control / Concentration in Serum Total Cholesterol, percentage of control / Concentration in Serum Chol-LDL / Concentration in Serum HDL-Chol. / Concentration in Serum Total Cholesterol: fed 3 weeks
Source text: These responses were attributed to the presence in the small grains of relatively high concentrations of beta-D-glucans and pentosans. A long-standing interest in lipid metabolism prompted us to examine certain lipogenic and cholesterolgenic enzymes in the tissues of these birds. Methods used for handling blood samples, preparing subcellular fractions of liver and assay procedures for beta-hydroxy-beta-methylglutaryl coenzyme A (HMG Co-A) reductase, fatty acid synthetase (FAS), plasma cholesterol and triglycerides and the statistical treatment of the data have been described [Qureshi AA et al. (1980): Regulation of lipid metabolism in chicken livers by dietary cereals, J Nutr 110:388-393].
For large scale preparation of these compounds, 10 grams of the petroleum ether soluble fraction of HPBF were dissolved in 10 ml petroleum ether and applied to a 90×3.5 cm silicic acid column (Bio-Silica, 100-200 mesh). The column was washed with 2,500 ml petroleum ether followed by stepwise elution with increasing amounts of ether in petroleum ether. Fraction 8 of the column corresponded to HPLC fraction 5. A concentration-dependent suppression of HMG Co-A reductase activity and enhancement of FAS activity was noted within this range. Serum total and LDL cholesterol levels also fell in a dose-dependent response. […] In a companion experiment, using the same control birds, the effect of cholesterol inhibitor I at 5 ppm is compared to the effect of the petroleum ether solubles of HPBF at 20% equivalent on weight gain, HMG Co-A reductase and FAS activities, serum cholesterol and serum triglyceride levels (Table 2). […] Serum triglyceride levels reflected the influence of the diet on FAS activity. […] Cholesterol inhibitor I was a more powerful suppressor of LDL cholesterol (Table 2).
^1 Feeding period was 3 weeks; Time of killing was 0800; Data
expressed as mean ± SD; N = 9 chickens per group; HMGCoA reductase =

[1] = 2.5 ppm in corn diet, mean ± SD, N = 9
[2] = 5.0 ppm in corn diet, mean ± SD, N = 9
[3] = 10.0 ppm in corn diet, mean ± SD, N = 9
[4] = 15.0 ppm in corn diet, mean ± SD, N = 9
[5] = 20.0 ppm in corn diet, mean ± SD, N = 9
[6] = corn diet + 5 ppm (Table 2), mean ± SD, N = 9

Q: For CC(C)=CCC/C(C)=C/CC/C(C)=C/CC[C@]1(C)CCc2c(C)c(O)c(C)c(C)c2O1 [Cholesterol inhibitor I, 2,5,7,8-tetramethyl-2 (4,8, 12-trimethyltrideca-3,7, 11-trienyl)chroman-6-ol], which “Concentration in Serum Chol-LDL, percentage of control” value (2.5 ppm in corn diet) is on record?
A: 90 Percentage of respective contr

Q: What about the “Concentration in Serum Total Cholesterol, percentage of control” value (2.5 ppm in corn diet) of the same molecule?
A: 94 Percentage of respective contr

Q: And the “Concentration in Serum Chol-LDL” value [1]?
A: 73 ± 5 mg/100 ml

Q: What about the “Concentration in Serum HDL-Chol.” value [1] of the same molecule?
A: 54 ± 6 mg/100 ml

Q: What about the “Concentration in Serum Total Cholesterol” value [1] of the same molecule?
A: 152 ± 10 mg/100 ml

Q: And the “Level of cholesterol transported in the high-density lipoprotein fraction (HDL)” value (2.5 to 20 ppm, Table 1)?
A: not influenced

Q: What about the “Concentration in Serum Chol-LDL, percentage of control” value (5.0 ppm in corn diet) of the same molecule?
A: 74 Percentage of respective contr

Q: What about the “Concentration in Serum Total Cholesterol, percentage of control” value (5.0 ppm in corn diet) of the same molecule?
A: 89 Percentage of respective contr

Q: And the “Concentration in Serum Chol-LDL” value [2]?
A: 60 ± 4 mg/100 ml

Q: What about the “Concentration in Serum HDL-Chol.” value [2] of the same molecule?
A: 51 ± 4 mg/100 ml

Q: And the “Concentration in Serum Total Cholesterol” value [2]?
A: 144 ± 8 mg/100 ml

Q: What about the “Concentration in Serum Chol-LDL, percentage of control” value (10.0 ppm in corn diet) of the same molecule?
A: 67 Percentage of respective contr

Q: And the “Concentration in Serum Total Cholesterol, percentage of control” value (10.0 ppm in corn diet)?
A: 78 Percentage of respective contr

Q: What about the “Concentration in Serum Chol-LDL” value [3] of the same molecule?
A: 54 ± 4 mg/100 ml

Q: And the “Concentration in Serum HDL-Chol.” value [3]?
A: 52 ± 5 mg/100 ml

Q: And the “Concentration in Serum Total Cholesterol” value [3]?
A: 125 ± 7 mg/100 ml

Q: And the “Concentration in Serum Chol-LDL, percentage of control” value (15.0 ppm in corn diet)?
A: 64 Percentage of respective contr

Q: And the “Concentration in Serum Total Cholesterol, percentage of control” value (15.0 ppm in corn diet)?
A: 76 Percentage of respective contr

Q: What about the “Concentration in Serum Chol-LDL” value [4] of the same molecule?
A: 52 ± 5 mg/100 ml

Q: And the “Concentration in Serum HDL-Chol.” value [4]?
A: 50 ± 6 mg/100 ml

Q: And the “Concentration in Serum Total Cholesterol” value [4]?
A: 122 ± 6 mg/100 ml

Q: What about the “Concentration in Serum Chol-LDL, percentage of control” value (20.0 ppm in corn diet) of the same molecule?
A: 47 Percentage of respective contr

Q: What about the “Concentration in Serum Total Cholesterol, percentage of control” value (20.0 ppm in corn diet) of the same molecule?
A: 65 Percentage of respective contr

Q: What about the “Concentration in Serum Chol-LDL” value [5] of the same molecule?
A: 38 ± 5 mg/100 ml

Q: And the “Concentration in Serum HDL-Chol.” value [5]?
A: 48 ± 5 mg/100 ml

Q: And the “Concentration in Serum Total Cholesterol” value [5]?
A: 105 ± 8 mg/100 ml

Q: What about the “Serum Cholesterol HDL-Chol.” value [6] of the same molecule?
A: 48 ± 5 mg/dL

Q: And the “Serum Cholesterol LDL-Chol.” value [6]?
A: 38 ± 5 mg/dL

Q: What about the “Serum Cholesterol Total-Chol.” value [6] of the same molecule?
A: 105 ± 11 mg/dL

Q: And the “Serum Triglycerides” value [6]?
A: 174 ± 6 mg/dL
